# From ChEMBL document CHEMBL5729261, “AMPK activators” (2022)
# Molecular target: AMP-activated protein kinase (AMPK) alpha-1/beta-1/gamma-1 (Homo sapiens, UniProt P54619+Q13131+Q9Y478)
# Assay: In Vitro pAMPK1 Kinase Activation Assay: Compound effect on AMPK enzyme activation was determined in a cell-free format with a 12-point concentration curve. The ADP-Glo detection system was used to determine phosphorylation of a SAMS peptide substrate. Recombinant AMPK α1/β1/γ1 complex was pre-activated by phosphorylation with CAMKK2 followed by incubated with compound for 15 minutes prior to the SAMS phosphorylation reaction. Activity curves and EC50 values were fitted by interpolation to an ATP:ADP standard curve as indicated by the ADP-Glo manufacturer using Prism software.
# Assay type: protein-complex assay
# AMP-activated protein kinase (AMPK) alpha-1/beta-1/gamma-1, sequence (P54619 whole entry): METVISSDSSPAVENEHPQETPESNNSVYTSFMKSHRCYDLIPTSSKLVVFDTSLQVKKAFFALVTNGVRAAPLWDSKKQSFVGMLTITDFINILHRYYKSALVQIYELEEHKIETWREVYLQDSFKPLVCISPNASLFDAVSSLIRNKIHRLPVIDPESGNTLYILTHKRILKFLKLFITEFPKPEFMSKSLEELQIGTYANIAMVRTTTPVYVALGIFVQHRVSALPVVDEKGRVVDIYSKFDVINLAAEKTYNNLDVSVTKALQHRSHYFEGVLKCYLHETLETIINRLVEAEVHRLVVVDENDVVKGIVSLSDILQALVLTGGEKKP
# AMP-activated protein kinase (AMPK) alpha-1/beta-1/gamma-1, sequence (Q9Y478 whole entry): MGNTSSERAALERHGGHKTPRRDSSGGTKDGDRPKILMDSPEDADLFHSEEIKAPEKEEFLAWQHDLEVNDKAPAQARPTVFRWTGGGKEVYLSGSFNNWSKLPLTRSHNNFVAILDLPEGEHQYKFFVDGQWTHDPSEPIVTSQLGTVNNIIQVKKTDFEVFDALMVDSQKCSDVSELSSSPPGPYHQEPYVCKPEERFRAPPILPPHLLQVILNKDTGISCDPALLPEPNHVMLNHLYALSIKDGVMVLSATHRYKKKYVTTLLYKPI
# AMP-activated protein kinase (AMPK) alpha-1/beta-1/gamma-1, sequence (Q13131 whole entry): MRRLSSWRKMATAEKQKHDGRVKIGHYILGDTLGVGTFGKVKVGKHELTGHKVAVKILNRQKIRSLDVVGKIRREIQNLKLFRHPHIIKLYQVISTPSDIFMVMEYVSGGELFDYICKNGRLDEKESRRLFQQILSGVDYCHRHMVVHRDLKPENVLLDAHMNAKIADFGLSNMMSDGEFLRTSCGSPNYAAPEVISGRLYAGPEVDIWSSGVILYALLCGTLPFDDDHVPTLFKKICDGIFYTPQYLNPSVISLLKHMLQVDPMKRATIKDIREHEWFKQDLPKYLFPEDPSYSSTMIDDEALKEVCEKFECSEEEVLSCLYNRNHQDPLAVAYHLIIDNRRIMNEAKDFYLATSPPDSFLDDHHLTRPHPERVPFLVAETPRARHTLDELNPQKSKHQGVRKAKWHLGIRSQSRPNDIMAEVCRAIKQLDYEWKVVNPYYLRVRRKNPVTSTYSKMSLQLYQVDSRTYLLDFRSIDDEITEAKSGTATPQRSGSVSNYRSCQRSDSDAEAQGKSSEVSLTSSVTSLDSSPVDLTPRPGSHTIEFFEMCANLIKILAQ
smiles,measurement,value
O=C(NCC[N+]12CCN(CC1)CC2)c1ccc(-c2ccc(-c3cc4nc(O[C@@H]5CO[C@H]6[C@@H]5OC[C@H]6O)[nH]c4cc3Cl)cc2)cc1,EC50,0.76 nM
OCC(CO)NCc1ccc(-c2ccc(-c3cc4nc(O[C@@H]5CO[C@H]6[C@@H]5OC[C@H]6O)[nH]c4cc3Cl)cc2)cc1,EC50,1.08 nM
O=C(NCCC[N+]12CCN(CC1)CC2)c1ccc(-c2ccc(-c3cc4nc(O[C@@H]5CO[C@H]6[C@@H]5OC[C@H]6O)[nH]c4cc3Cl)cc2)cc1,EC50,0.96 nM
O=S(=O)(NCCOCCO)c1ccc(-c2ccc(-c3cc4nc(O[C@@H]5CO[C@H]6[C@@H]5OC[C@H]6O)[nH]c4cc3Cl)cc2)cc1,EC50,1.51 nM
